# US20170100447A1, “COMPOSITIONS BASED ON PLANT EXTRACTS FOR INHIBITION OF THE 5-ALPHA REDUCTASE” (BIONAP S.R.L., priority 2014, published 2017)
# System: immortalized human sebocytes (SZ95 sebocyte line)
# Experiment: MTT assay on testosterone-stimulated sebocytes
# Format: cell-based
# Details: testosterone 10^−6 M; 9 days
# Method: The line of immortalized human sebocytes (SZ95 sebocyte line) has been cultivated in medium Sebomed (Biochrom) supplemented with fetal calf serum 10%, […] of recombining human epidermal growth factor, 1 mM Ca^2+ and 50 μg/ml gentamicin, in an atmosphere of CO2 5% at 37° C. The SZ95 cells have been subsequently plated on wells for the MTT assays and, after 24 hours of incubation in an atmosphere of CO2 5% at 37° C., have been treated with a new culture medium containing testosterone in a final concentration of 10^−6 M and the extracts, according to the indications reported in Table 1.
# The cellular vitality has been assessed for each sample after 9 days of treatment through colorimetric MTT assay (according to the protocol as above described) and expressed in a percentage value with respect to control (0%) and to the treatment with testosterone (test=100%). Each experiment has been carried out in triplicate.
compound,measurement,value
C[C@]12CC[C@H]3[C@@H](CCC4=CC(=O)CC[C@@]43C)[C@@H]1CC[C@@H]2O [testosterone],effect of testosterone on cellular proliferation of SZ95 sebocytes,induces in these cells an increase of cellular proliferation
